Series [1] has as its system human breast cancer cell line (MCF-7). The series can be described thus: MTT assay, tumor cell proliferation inhibition, MCF-7. It is filed as cell-based. The conditions noted are these: MCF-7, MTT, 72 h, read-out: Tumor inhibition rate (IC50). On the procedure:
(§1) Cell lines to be tested: human hepatoma cell line (HepG2), human lung cancer cell line (A549), human prostate cancer cell line (DU145), human breast cancer cell line (MCF-7), human neuroblastoma cell line (SH-SY5Y), human gastric mucosal cell line (Ges-1) and human embryonic lung fibroblast cell line (CCC-HPF-1) (the cells to be tested were purchased from the Cancer Hospital of Chinese Academy of Medical Sciences).
(§2) The cells in logarithmic growth phase were treated to prepare a single cell suspension, with the cell density adjusted, which was seeded in a 96-well cell culture plate. About 2×10^3 cells were contained in 100 μL per well, and cultured in a cell incubator at 37° C., 5% CO2, and saturated humidity for 24 h. The used medium was aspirated and abandoned, and then 100 μL of the target compound in different concentrations (0.1 μM-100 μM) were added for drug treatment. Five duplicate wells were prepared for each concentration. The background blank well, negative control well and positive control well were also prepared. All the wells were placed in a cell culture incubator at 37° C., 5% CO2, saturated humidity for another 72 h. Then, each well was added with 10 μL of MTT solution (5 mg/mL) and incubated for another 4 h. After that, each well was added with 100 μL of 10% SDS-0.1% NH4Cl (10% SDS purchased from Beijing Mengyimei Biotechnology Co., Ltd.) solution, and incubated at 37° C. for 10 h in the dark. Then, the absorbance OD was measured at 570 nm using a microplate reader at a reference wavelength of 650 nm. Cell proliferation inhibition was calculated according to the following formula: % inhibition=(ODcontrol−ODtreat)(ODcontrol−ODblank)×100. […] Each group was performed at least three times in parallel.

The test system of series [2] is human hepatoma cell line (HepG2). The series can be described thus: MTT assay, tumor cell proliferation inhibition, HepG2. Conditions: 72 h, read-out: Tumor inhibition rate (IC50). It counts as cell-based. On the procedure:
as §1, §2
For orientation: Formazan colour is commonly taken as a measure of viable cells.

For series [3], the system named is human neuroblastoma cell line (SH-SY5Y). The series can be described thus: MTT assay, tumor cell proliferation inhibition, SH-SY5Y. It is filed as cell-based. The conditions noted are these: for IC50: SH-SY5Y, 72 h, read-out: Tumor inhibition rate (IC50). On the procedure: as §1, §2
The test system of series [4] is human lung cancer cell line (A549). The series can be described thus: MTT assay, tumor cell proliferation inhibition, A549. It counts as cell-based. Conditions: A549, MTT, 72 h, read-out: Tumor inhibition rate (IC50). On the procedure:
as §1, §2

Series [5] relates to human prostate cancer cell line (DU145). The series can be described thus: MTT assay, tumor cell proliferation inhibition, DU145. Conditions: for IC50: DU145, MTT, 72 h, read-out: Tumor inhibition rate (IC50). It counts as cell-based. On the procedure: as §1, §2
For a further series, the system named is DU145 cancer cells. The series can be described thus: Nude mice bearing DU145 cancer cells. It is filed as in vivo. The conditions noted are these: for tumor growth: FIG. 3. On the procedure: (§3) In the present invention, the antitumor activity was evaluated by intraperitoneal injection to nude mice bearing different tumors, for compounds 3 (N-(4-((4-nitrophenyl)methoxy)phenyl)-6,7-(benzo-9-crown-3)-4-quinazolinamine) and 23 (compounds No. are shown in Table 1) (N-(3-((4-trifluoromethylphenyl)methoxy)phenyl)-6,7-(benzo-12-crown-4)-4-quinazolinamine) of formula (I).
Firstly, a tumor-bearing nude mouse model was established. 0.2-1 mL of cell suspension was inoculated subcutaneously into the left lower limb of nude mice, and the drug was administered when the tumor volume reached about 100 mm^3. Then, grouping and administration were performed; the nude mice (5 mice in each group) were randomly divided into several groups, such as ultra-pure water control group (blank), positive drug control group, and different dosage treatment groups. […] The nude mice were weighted every other day during the administration. Tumor volumes were measured and calculated. Then tumor growth curve, tumor inhibition curve (see FIGS. 1 and 3) and weight change curve (see FIGS. 2 and 4) were drawn. […]. Among those, docetaxel suffers from high cumulative neurotoxic toxicity and drug resistance although it has the best effect. Comparing to docetaxel, compound 23 has a much lower toxicity and drug resistance, and thus has a great development prospect. […]

The subject of the next series is A549 cancer cells. The series can be described thus: Nude mice bearing A549 cancer cells. It counts as in vivo. The conditions noted are these: mouse, in vivo. On the procedure: as §3
Firstly, a tumor-bearing nude mouse model was established. 0.2-1 mL of cell suspension was inoculated subcutaneously into the left lower limb of nude mice, and the drug was administered when the tumor volume reached about 100 mm^3. Then, grouping and administration were performed; the nude mice (5 mice in each group) were randomly divided into several groups, such as ultra-pure water control group (blank), positive drug control group, and different dosage treatment groups. The nude mice in each group were administered continuously for 40 days. The nude mice were weighted every other day during the administration. Tumor volumes were measured and calculated. Then tumor growth curve, tumor inhibition curve (see FIGS. 1 and 3) and weight change curve (see FIGS. 2 and 4) were drawn. […]. Among those, docetaxel suffers from high cumulative neurotoxic toxicity and drug resistance although it has the best effect. Comparing to docetaxel, compound 23 has a much lower toxicity and drug resistance, and thus has a great development prospect. […]

In another series the test system is HepG2 cancer cells. The series can be described thus: Nude mice bearing HepG2 cancer cells. The conditions noted are these: for weight loss of nude mice (FIG. 6): 40 mg/Kg, single agent; for tumor growth (tumor volume, FIG. 5): nude mice bearing HepG2, single agent.

“Also recorded” adds a separate entry of the source. Where two headings read alike, the source gives them in different places.

Procedure for HepG2 cancer cells: Firstly, a tumor-bearing nude mouse model was established. […] Then, grouping and administration were performed; the nude mice (5 mice in each group) were randomly divided into several groups, such as ultra-pure water control group (blank), positive drug control group, and different dosage treatment groups. The nude mice in each group were administered continuously for 40 days. The nude mice were weighted every other day during the administration. Tumor volumes were measured and calculated.

Usually melting point stands for the temperature, or range, at which the solid turns liquid. As a reminder, the IC50 is the concentration that inhibits the measured activity by half. `N#Cc1cc(Nc2ncnc3cc4c(cc23)OCCOCCO4)ccc1OCc1cccc(F)c1` [Compound 36, 2-(3-Fluoro-benzyloxy)-5-(7,8,10,11-tetrahydro-6,9,12-trioxa-1,3-diaza-cyclonona[b]naphthalen-4-ylamino)-benzonitrile] yielded a melting point of 220 to 222 °C. The IC50 in series [1] (Homo sapiens, MCF7) was above 100 µM. Besides, the IC50 in series [2] (Homo sapiens) was above 100 µM. The IC50 in [3] (Homo sapiens) is above 100 µM. Also, the IC50 in [4] (Homo sapiens) amounted to 3.52 µM. Also, in series [5] (Homo sapiens, DU-145), the IC50 was 0.31 µM.
In the case of `O=[N+]([O-])c1ccc(COc2ccccc2Nc2ncnc3cc4c(cc23)OCCOCCO4)cc1` [Compound 1, N-(2-((4-nitrophenyl)methoxy)phenyl)-6,7-(benzo-9-crown-3)-4-quinazolinamine], the melting point fell in the range of 192 to 193 °C. In series [1] (Homo sapiens, MCF7), the IC50 is above 100 µM. Moreover, the IC50 in [2] (Homo sapiens) turned out to be 50.2 µM. Besides, the IC50 in series [3] (Homo sapiens) was above 100 µM. Further, the IC50 in series [4] (Homo sapiens) is 28.4 µM. Also, in series [5] (Homo sapiens, DU-145), the IC50 amounted to 85.6 µM.
`FC(F)(F)c1ccc(COc2cccc(Nc3ncnc4cc5c(cc34)OCCOCCOCCO5)c2)cc1` [Compound 23, N-(3-((4-trifluoromethylphenyl)methoxy)phenyl)-6,7-(benzo-12-crown-4)-4-quinazolinamine]: the tumor growth entry with DU145 cancer cells (80 mg/Kg) is listed as “no longer grown almost”; in the series with DU145 cancer cells (160 mg/Kg), “no longer grown almost; also recorded: completely inhibited”. For the same compound, the “body weight compared with blank control” value in the series with DU145 cancer cells (80 mg/Kg, after treating for 50 days) is “even heavier than that of the blank control group”. Besides, the toxicity result in the series with DU145 cancer cells (160 mg/kg, FIG. 4) is “no significant toxicity was observed”. Also, the “toxicity / body weight of nude mice (FIG. 4)” value in the series with DU145 cancer cells (nude mice bearing DU145) is reported as “very low”. For the same compound, the “antitumor effect (tumor volume, FIG. 3)” value in the series with DU145 cancer cells (nude mice bearing DU145, intraperitoneal injection, three doses) was “significant antitumor effect; also recorded: high inhibitory effect”. For the same compound, the IC50 in [1] (Homo sapiens, MCF7) amounted to 17.6 µM; in [2] (Homo sapiens), 34 µM; in series [3] (Homo sapiens), 20 µM; in series [4] (Homo sapiens), 24.9 µM; in series [5] (Homo sapiens, DU-145) it was 2.76 µM. For the same compound, the “inhibitory effect on DU145 (in words)” value in series [5] (MTT, summary of Table 1) is “strong specific inhibitory effect”.
Turning to `COc1cc2ncnc(Nc3ccc(F)c(Cl)c3)c2cc1OCCCN1CCOCC1` [Gefitinib, reference compound], the “toxicity / body weight of nude mice (FIG. 2)” value with A549 cancer cells is on record as “increased”.
Take `CNC(=O)c1cc(Oc2ccc(NC(=O)Nc3ccc(Cl)c(C(F)(F)F)c3)c(F)c2)ccn1` [regorafenib]: in the series with HepG2 cancer cells, the “weight loss of nude mice (FIG. 6)” value was “weight loss of nude mice is similar” and the “tumor growth (tumor volume, FIG. 5)” value is given as “can slow down the tumor growth with increasing drug dose”.
As for `CNC(=O)c1cc(Oc2ccc(NC(=O)Nc3ccc(Cl)c(C(F)(F)F)c3)cc2)ccn1` [sorafenib], in the series with HepG2 cancer cells, the “weight loss of nude mice (FIG. 6)” value is on record as “weight loss of nude mice is relatively slow” and the “tumor growth (tumor volume, FIG. 5)” value is given as “can slow down the tumor growth with increasing drug dose”.
As to `N#Cc1ccc(COc2cccc(Nc3ncnc4cc5c(cc34)OCCOCCOCCO5)c2)cc1` [Compound 10, N-(3-((4-cyanophenyl)methoxy)phenyl)-6,7-(benzo-12-crown-4)-4-quinazolinamine], the IC50 in [1], in series [2], in series [3], in series [4] and in [5] was above 100 µM in each case.
With `N#Cc1ccc(COc2ccc(Nc3ncnc4cc5c(cc34)OCCOCCOCCO5)cc2)cc1` [Compound 11, N-(4-((4-cyanophenyl)methoxy)phenyl)-6,7-(benzo-12-crown-4)-4-quinazolinamine], the IC50 in [1] is above 100 µM; in series [2], 67.4 µM; in series [3], 9.89 µM; in series [4], 81.3 µM; in series [5] it was above 100 µM. Moreover, the “inhibitory effect on SH-SY5Y (in words)” value in [3] (summary of Table 1) is on record as “strong specific inhibitory effect”.
Regarding `Fc1ccc(COc2cccc(Nc3ncnc4cc5c(cc34)OCCOCCOCCOCCO5)c2)cc1` [Compound 25, N-(3-((p-fluorophenyl)methoxy)phenyl)-6,7-(benzo-15-crown-5)-4-quinazolinamine], the IC50 in series [1] was above 100 µM; in series [2], 19 µM; in series [3], 20 µM; in [4] it was above 100 µM; in series [5], above 100 µM.
As for `O=[N+]([O-])c1ccc(COc2ccc(Nc3ncnc4cc5c(cc34)OCCOCCOCCO5)cc2)cc1` [Compound 20, N-(4-((4-nitrophenyl)methoxy)phenyl)-6,7-(benzo-12-crown-4)-4-quinazolinamine], the IC50 in series [1] is 66.5 µM; in [2], 19.4 µM; in series [3], 58.6 µM; in [4], above 100 µM; in [5], above 100 µM.
Turning to `O=[N+]([O-])c1ccc(COc2cccc(Nc3ncnc4cc5c(cc34)OCCOCCOCCO5)c2)cc1` [Compound 19, N-(3-((4-nitrophenyl)methoxy)phenyl)-6,7-(benzo-12-crown-4)-4-quinazolinamine], the IC50 in series [1], in series [2], in series [3], in [4] and in [5] was above 100 µM in each case.
Consider `FC(F)(F)c1ccc(COc2ccccc2Nc2ncnc3cc4c(cc23)OCCOCCO4)cc1` [Compound 7, N-(2-((4-trifluoromethylphenyl)methoxy)phenyl)-6,7-(benzo-9-crown-3)-4-quinazolinamine], for which the IC50 in series [1] was above 100 µM; in series [2], 87.4 µM; in series [3] it was above 100 µM; in series [4], above 100 µM; in [5], above 100 µM.
Regarding `Fc1ccc(COc2ccc(Nc3ncnc4cc5c(cc34)OCCOCCOCCOCCO5)cc2)cc1` [Compound 26, N-(4-((p-fluorophenyl)methoxy)phenyl)-6,7-(benzo-15-crown-5)-4-quinazolinamine], the IC50 was above 100 µM in series [1]; 55.5 µM in series [2]; 39.3 µM in series [3]; 43.9 µM in series [4]; above 100 µM in series [5].

Values taken from patent publication US11504371B2, “Quinazolines compound, preparation method therefor and application thereof” (Beijing Normal University, priority 2017, dated 2022).
